From ChEMBL document CHEMBL5715952 (Oncotarget, 2015)

Tests used:
[1] = Inhibition of PI3K/mTOR/ATM in human RPMI-8226 cells assessed as reduction of cell growth incubated for 72 hrs by CellTiter 96 aqueous one solution cell proliferation assay; format: cell-based; conditions: RPMI-8226, 72 h
[2] = Inhibition of PI3K/mTOR/ATM in bortezomib Resistant human RPMI-8226 cells assessed as reduction of cell growth incubated for 72 hrs by CellTiter 96 aqueous one solution cell proliferation assay; format: cell-based; conditions: Bortezomib-resistant RPMI-8226, 72 h
[3] = Inhibition of PI3K/mTOR/ATM in Melphalan Resistant human RPMI-8226 cells assessed as reduction of cell growth incubated for 72 hrs by CellTiter 96 aqueous one solution cell proliferation assay; format: cell-based; conditions: Melphalan-resistant RPMI-8226 cell
[4] = Inhibition of PI3K/mTOR/ATM in human ANBL-6 cells assessed as reduction of cell growth incubated for 72 hrs by CellTiter 96 aqueous one solution cell proliferation assay; format: cell-based; conditions: ANBL-6, 72 h
[5] = Inhibition of PI3K/mTOR/ATM in human bortezomib-resistant ANBL6 cells assessed as reduction of cell growth incubated for 72 hrs by CellTiter 96 aqueous one solution cell proliferation assay; format: cell-based
[6] = Inhibition of PI3K/mTOR/ATM in human U-266 cells assessed as reduction of cell growth incubated for 72 hrs by CellTiter 96 aqueous one solution cell proliferation assay; format: cell-based; conditions: U-266, 72 h
[7] = Ratio of IC50 for inhibition of PI3K/mTOR/ATM in human RPMI-8226 cells assessed as reduction of cell viability to IC50 for inhibition of PI3K/mTOR/ATM in human melphalan-resistant RPMI-8226 cells assessed as reduction of cell viability; conditions: time 72 hrs; condition multiple myeloma
[8] = Ratio of IC50 for inhibition of PI3K/mTOR/ATM in human RPMI-8226 cells assessed as reduction of cell viability to IC50 for inhibition of PI3K/mTOR/ATM in human RPMI-8226/BR resistant cells assessed as reduction of cell viability; conditions: condition multiple myeloma
[9] = Ratio of IC50 for inhibition of PI3K/mTOR/ATM in human ANBL6 cells assessed as reduction of cell viability to IC50 for inhibition of PI3K/mTOR/ATM in human ANBL6/BR resistant cells assessed as reduction of cell viability; conditions: condition multiple myeloma
[10] = Inhibition of VEGFR1/PDGFR/cKIT/RET in human RPMI-8226 cells assessed as reduction of cell growth incubated for 72 hrs by CellTiter 96 aqueous one solution cell proliferation assay; format: cell-based; conditions: RPMI-8226, 72 h
[11] = Inhibition of VEGFR2/PDGFR/cKIT/RET in human RPMI-8226 cells assessed as reduction of cell growth incubated for 72 hrs by CellTiter 96 aqueous one solution cell proliferation assay; format: cell-based; conditions: RPMI-8226, 72 h
[12] = Inhibition of VEGFR3/PDGFR/cKIT/RET in human RPMI-8226 cells assessed as reduction of cell growth incubated for 72 hrs by CellTiter 96 aqueous one solution cell proliferation assay; format: cell-based; conditions: RPMI-8226, 72 h
[13] = Inhibition of VEGFR1/PDGFR/cKIT/RET in bortezomib Resistant human RPMI-8226 cells assessed as reduction of cell growth incubated for 72 hrs by CellTiter 96 aqueous one solution cell proliferation assay; format: cell-based; conditions: Bortezomib-resistant RPMI-8226, 72 h
[14] = Inhibition of VEGFR2/PDGFR/cKIT/RET in bortezomib Resistant human RPMI-8226 cells assessed as reduction of cell growth incubated for 72 hrs by CellTiter 96 aqueous one solution cell proliferation assay; format: cell-based; conditions: Bortezomib-resistant RPMI-8226, 72 h
[15] = Inhibition of VEGFR3/PDGFR/cKIT/RET in bortezomib Resistant human RPMI-8226 cells assessed as reduction of cell growth incubated for 72 hrs by CellTiter 96 aqueous one solution cell proliferation assay; format: cell-based; conditions: Bortezomib-resistant RPMI-8226, 72 h
[16] = Inhibition of VEGFR1/PDGFR/cKIT/RET in Melphalan Resistant human RPMI-8226 cells assessed as reduction of cell growth incubated for 72 hrs by CellTiter 96 aqueous one solution cell proliferation assay; format: cell-based; conditions: Melphalan-resistant RPMI-8226 cell
[17] = Inhibition of VEGFR2/PDGFR/cKIT/RET in Melphalan Resistant human RPMI-8226 cells assessed as reduction of cell growth incubated for 72 hrs by CellTiter 96 aqueous one solution cell proliferation assay; format: cell-based; conditions: Melphalan-resistant RPMI-8226 cell
[18] = Inhibition of VEGFR3/PDGFR/cKIT/RET in Melphalan Resistant human RPMI-8226 cells assessed as reduction of cell growth incubated for 72 hrs by CellTiter 96 aqueous one solution cell proliferation assay; format: cell-based; conditions: Melphalan-resistant RPMI-8226 cell
[19] = Inhibition of VEGFR1/PDGFR/cKIT/RET in human ANBL-6 cells assessed as reduction of cell growth incubated for 72 hrs by CellTiter 96 aqueous one solution cell proliferation assay; format: cell-based; conditions: ANBL-6, 72 h
[20] = Inhibition of VEGFR2/PDGFR/cKIT/RET in human ANBL-6 cells assessed as reduction of cell growth incubated for 72 hrs by CellTiter 96 aqueous one solution cell proliferation assay; format: cell-based; conditions: ANBL-6, 72 h
[21] = Inhibition of VEGFR3/PDGFR/cKIT/RET in human ANBL-6 cells assessed as reduction of cell growth incubated for 72 hrs by CellTiter 96 aqueous one solution cell proliferation assay; format: cell-based; conditions: ANBL-6, 72 h
[22] = Inhibition of VEGFR1/PDGFR/cKIT/RET in human bortezomib-resistant ANBL6 cells assessed as reduction of cell growth incubated for 72 hrs by CellTiter 96 aqueous one solution cell proliferation assay; format: cell-based
[23] = Inhibition of VEGFR2/PDGFR/cKIT/RET in human bortezomib-resistant ANBL6 cells assessed as reduction of cell growth incubated for 72 hrs by CellTiter 96 aqueous one solution cell proliferation assay; format: cell-based
[24] = Inhibition of VEGFR3/PDGFR/cKIT/RET in human bortezomib-resistant ANBL6 cells assessed as reduction of cell growth incubated for 72 hrs by CellTiter 96 aqueous one solution cell proliferation assay; format: cell-based
[25] = Inhibition of VEGFR1/PDGFR/cKIT/RET in human U-266 cells assessed as reduction of cell growth incubated for 72 hrs by CellTiter 96 aqueous one solution cell proliferation assay; format: cell-based; conditions: U-266, 72 h
[26] = Inhibition of VEGFR2/PDGFR/cKIT/RET in human U-266 cells assessed as reduction of cell growth incubated for 72 hrs by CellTiter 96 aqueous one solution cell proliferation assay; format: cell-based; conditions: U-266, 72 h
[27] = Inhibition of VEGFR3/PDGFR/cKIT/RET in human U-266 cells assessed as reduction of cell growth incubated for 72 hrs by CellTiter 96 aqueous one solution cell proliferation assay; format: cell-based; conditions: U-266, 72 h
[28] = Ratio of IC50 for inhibition of VEGFR1/PDGFR/cKIT/RET in human RPMI-8226 cells assessed as reduction of cell viability to IC50 for inhibition of VEGFR1/PDGFR/cKIT/RET in human melphalan-resistant RPMI-8226 cells assessed as reduction of cell viability; conditions: time 72 hrs; condition multiple myeloma
[29] = Ratio of IC50 for inhibition of VEGFR2/PDGFR/cKIT/RET in human RPMI-8226 cells assessed as reduction of cell viability to IC50 for inhibition of VEGFR2/PDGFR/cKIT/RET in human melphalan-resistant RPMI-8226 cells assessed as reduction of cell viability; conditions: time 72 hrs; condition multiple myeloma
[30] = Ratio of IC50 for inhibition of VEGFR3/PDGFR/cKIT/RET in human RPMI-8226 cells assessed as reduction of cell viability to IC50 for inhibition of VEGFR3/PDGFR/cKIT/RET in human melphalan-resistant RPMI-8226 cells assessed as reduction of cell viability; conditions: time 72 hrs; condition multiple myeloma
[31] = Ratio of IC50 for inhibition of VEGFR1/PDGFR/cKIT/RET in human RPMI-8226 cells assessed as reduction of cell viability to IC50 for inhibition of VEGFR1/PDGFR/cKIT/RET in human RPMI-8226/BR resistant cells assessed as reduction of cell viability; conditions: condition multiple myeloma
[32] = Ratio of IC50 for inhibition of VEGFR2/PDGFR/cKIT/RET in human RPMI-8226 cells assessed as reduction of cell viability to IC50 for inhibition of VEGFR2/PDGFR/cKIT/RET in human RPMI-8226/BR resistant cells assessed as reduction of cell viability; conditions: condition multiple myeloma
[33] = Ratio of IC50 for inhibition of VEGFR3/PDGFR/cKIT/RET in human RPMI-8226 cells assessed as reduction of cell viability to IC50 for inhibition of VEGFR3/PDGFR/cKIT/RET in human RPMI-8226/BR resistant cells assessed as reduction of cell viability; conditions: condition multiple myeloma
[34] = Ratio of IC50 for inhibition of VEGFR1/PDGFR/cKIT/RET in human ANBL6 cells assessed as reduction of cell viability to IC50 for inhibition of VEGFR1/PDGFR/cKIT/RET in human ANBL6/BR resistant cells assessed as reduction of cell viability; conditions: condition multiple myeloma
[35] = Ratio of IC50 for inhibition of VEGFR2/PDGFR/cKIT/RET in human ANBL6 cells assessed as reduction of cell viability to IC50 for inhibition of VEGFR2/PDGFR/cKIT/RET in human ANBL6/BR resistant cells assessed as reduction of cell viability; conditions: condition multiple myeloma
[36] = Ratio of IC50 for inhibition of VEGFR3/PDGFR/cKIT/RET in human ANBL6 cells assessed as reduction of cell viability to IC50 for inhibition of VEGFR3/PDGFR/cKIT/RET in human ANBL6/BR resistant cells assessed as reduction of cell viability; conditions: condition multiple myeloma

`O=c1cc(-c2cccc3c2Sc2ccccc2S3)oc(N2CCOCC2)c1` [KU-55933] showed an IC50 [1] of 10 µM, an IC50 [2] of 10 µM and an IC50 [3] of 10 µM. For the same compound, the IC50 [4] was 10 µM, the IC50 [5] was 10 µM and the IC50 [6] was 10 µM. The “Ratio IC50” value [7] was 1, the “Ratio IC50” value [8] was 1 and the “Ratio IC50” value [9] was 1.
With `CC1(C)CNc2cc(NC(=O)c3cccnc3NCc3ccncc3)ccc21` [MOTESANIB] the IC50 [10] was 10 µM, the IC50 [11] was 10 µM and the IC50 [12] was 10 µM. For the same compound, the IC50 [13] was 10 µM, the IC50 [14] was 10 µM and the IC50 [15] was 10 µM. For the same compound, the IC50 [16] was 10 µM, the IC50 [17] was 10 µM and the IC50 [18] was 10 µM. For the same compound, the IC50 [19] was 10 µM, the IC50 [20] was 10 µM and the IC50 [21] was 10 µM. For the same compound, the IC50 [22] was 10 µM, the IC50 [23] was 10 µM and the IC50 [24] was 10 µM. It also gave an IC50 [25] of 10 µM, an IC50 [26] of 10 µM and an IC50 [27] of 10 µM. For the same compound, the “Ratio IC50” value [28] was 1, the “Ratio IC50” value [29] was 1 and the “Ratio IC50” value [30] was 1. The “Ratio IC50” value [31] was 1, the “Ratio IC50” value [32] was 1 and the “Ratio IC50” value [33] was 1. The “Ratio IC50” value [34] was 1, the “Ratio IC50” value [35] was 1 and the “Ratio IC50” value [36] was 1.
